Experimental data as given in US3971814A, “Benzo(b)thiophene derivatives” (priority 1972, dated 1976).

Columns and labels:
[1] = test system: male mice (NMRI); test: Hot-plate test (analgesia); assay type: in vivo; conditions: mouse, i.g.
Description: male mice (NMRI) weighing 18 to 28 g are used as test animals. The animals are placed on a copper plate constantly kept at 55°C, and the time is measured until they lick their forepaws.
Following 3 initial measurements, the test substances are administered intragastrically. Afterwards the measurements are repeated over a period of 2 hours at intervals of 30 minutes. Each dose is administered to 10 animals selected from groups of 15 animals following the initial measurements.
The test substances are administered as a suspension in 1% Tragacanth mucilage, the volume of liquid amounting to 2 ml/100 g of body weight.
For the purpose of statistical evaluation according to Litchfield and Wilcoxon, those animals in which the reaction time has been extended by at least 100% are considered protected.

[2] = Summary: calculated ED50 and therapeutic ratio; assay type: in vivo, rat
Description: From the ED50 and LD50 (A) the following therapeutic ratios for this test are calculated: […]

[3] = in vivo; conditions: rat, po
Description: experimental animals are male mice (NMRI) weighing 16 to 24 g and male rats (SIV 50) weighing 120 to 180 g.
Prior to the beginning of the test, all animals are kept fasting for 16 to 18 hours, however water is offered ad libitum. 6 mice and 4 or 6 rats belonged to each dosage group and the doses between each group are increased logarithmically. The volume of liquid administered during testing amounted to 2 ml/100 g body weight. The substances tested are suspended in 1 percent Tragacanth mucilage and administered intragastrically via a gastric tube.

[4] = in vivo; conditions: mouse, po
[5] = test system: Arthritis Induced by the Freund Adjuvant; test: Adjuvant arthritis; assay type: in vivo; conditions: rat, i.g., 2 × 2.5 mg/kg
Description: test animals used are the same as described under Example E; food and water is given ad libitum.
On the first day of the test a 0.8% suspension of Mycobacterium butyrium in paraffin (0.05 or 0.1 ml/paw) is injected subplantarly into the left hind paw of the animals. […] From the 19th to the 22nd day the animals showing a reaction are treated intragastrically with the test substances. The right paw having been marked above the ankle-joint, the volume is determined daily from the 19th to the 22nd or 23rd day, according to the process described under Example B.
The volume of liquid, as well as of the carrier administered, corresponded to that described in the above tests.

[6] = test system: Yeast Edema of the Rat Paw; test: Yeast edema and determination of pain threshold in the rat paw; assay type: in vivo; conditions: 3 h; for Pain Threshold (change vs initial value) / Volume (increase in paw volume, blank control = 100%): i.g.
Description: test animals are male rats (SIV 50) weighing 100 to 180 g. […] 10 animals belonged to each dosage group.
The volume of the paw is determined according to the method described by Enders and Heidbrink, the pain threshold according to that described by Randall and Selitto (Arch. Int. Pharmacodyn CXI: 409, 1957).
Following initial measurements, […] of a 5% suspension of dried yeast is injected subplantarly into the right paw and the test substances are administered immediately. The blank control group is given Tragacanth mucilage only. After 3 hours the pain threshold and the volume of the paw are determined again.
The mean value of the increase in paw volume of the animals of the blank control after 3 hours is rated 100%, and the mean value of the increase in paw volume of the animals of the substance groups expressed as a percentage thereof. Pain threshold after 3 hours reflects the increase or decrease in percent, compared to the initial value.
In order to be able to calculate the ED50 according to the method by Lichtfield and Wilcoxon (J.P.E.T. 96:99, 1949), those animals in a dose group are considered protected when the paw swelling was at least 40% less than that of the blank control.

[7] = test system: Carrageenin Edema of the Rat Paw; test: Carrageenin edema of the rat paw; assay type: in vivo
Description: test animals used are the same as stated under Example B and up to the initial measurement, the procedure corresponded to that described under this example.
After an initial measurement, the test substances are administered and after 60 minutes a 1% Carrageenin suspension is injected subplantarly (0.1 ml/paw). After 60 and 180 minutes the paw volume is again determined. Here, too, the blank control group was treated with the carrier alone.
The increase in the volume of the paw after 60 minutes is considered as the first phase of the biphase edema and that after 180 minutes, as compared to the 60-minute-value, as the second phase. Moreover, the total increase of the paw edema within 180 minutes, as compared to the initial value, is also determined.
Determination of the influence exerted by the substances upon the development of the paw edema and calculation of the ED50 are done as under Example B.

[8] = test system: Granuloma Pouch; test: Granuloma pouch test; assay type: in vivo; conditions: rat, i.g., 2 × 1.5 mg/kg daily
Description: Under light ether anesthesia 25 ml of air are injected under the shaved skin of the back. 0.5 ml of croton oil/animal (0.05%) are injected into the pouch formed by the air, and evenly distributed over the back by turning the animal.
On the third day croton oil (3%, 0.5 ml/animal) is again injected into this pouch.
The average dry weights of the granuloma pouches and the quantities of secretion of the groups subjected to treatment are then compared with those of the control group and the percental deviations calculated.
At the end of some tests the suprarenal glands are removed and the weight of these organs is also determined.
The weight of the animals is measured daily and the changes determined as a percentage.

[9] = test system: Granulation Tissue; test: Cotton-pellet test (granulation tissue); assay type: in vivo; conditions: rat; for granulation tissue % dry weight: ig., 2×1,5 mg/kg daily, section K
Description: test animals are male rats (SIV 50) weighing 110 to 200 g. All test animals are kept fasting for 16 to 18 hours prior to the implantation of the pellets; after that food and water were available ad libitum. Each dose level of the chemical tested was administered to 12 animals. The substances were suspended in 1% Tragacanth mucilage and administered intragastrically by means of a stomach tube. The substances to be investigated and the control suspensions are administered once on the operating day following operation, and twice a day on the following 6 days (at intervals of 6 to 8 hours). The type of application and volume of liquid corresponded to that under B.
Under light ether anesthesia 4 sterile cotton pellets were implanted under the skin on the back of the animal. The weight of one pellet was 50 mg ± 0.5 mg. After 7 days treatment, the animals were sacrificed, the pellets removed with the granulation tissue, weighed and then dried in the incubator at +80°C to constant weight. The average dry weight of the granulation tissue of the control group was rated 100%, and deviations of the mean weights of the group treated with the test substance determined as a percentage thereof.
The weight of the animals is measured daily throughout the tests, and the percental increase determined. At the end of some tests, moreover, the suprarenal glands are removed and their weight determined.

[10] = test system: Kaolin Edema of the Rat Paw; test: Kaolin edema of the rat paw; assay type: in vivo; conditions: 2.5 mg/kg
Description: test animals used are the same as stated under Example B and up to the beginning of the test, the procedure corresponded to that described under this example.
After an initial measurement, a sterile 25% kaolin suspension was injected (0.05 ml/paw) subplantarly. The test substances are administered immediately, and after 60, 120, and 180 minutes the paw volume is again determined.
Evaluation of the tests was performed as stated under Example C, and the results so obtained presented below: […]

## COc1ccc2c(c1)c(CC(=O)O)c(C)n2C(=O)c1ccc(Cl)cc1 [Indomethacin, 1-(p-Chlorobenzoyl)-5-methoxy-2-methylindole-3-acetic acid]
[1]
  Notes (analgesic activity): slightly effective
[1]; starting with 20 mg/kg
  protection: approx. 50%
[2]; Rattus norvegicus
  ED50: 0.9 mg/kg
[2]; from ED50 and LD50 (A)
  therapeutic ratio: 33.3
[3]
  LD50: 20 to 30 mg/kg
[4]
  LD50: < 10 mg/kg
[5]
  Swelling: 80%
[6]; 5.0 mg/kg
  Pain Threshold (change vs initial value): -22%
  Volume (increase in paw volume, blank control = 100%): 131%
[6]; 20.0 mg/kg
  Pain Threshold (change vs initial value): +11%
  Volume (increase in paw volume, blank control = 100%): 108%
[6]; po, ig., 5 mg/kg, section K
  change in vivo at 5 mg/kg: -22%
[6]; po, ig., 5 mg/kg, section K, read-out: volume (paw, control = 100%)
  response vs control in vivo at 5 mg/kg: 100%
[7]; 1.0 mg/kg
  1st Phase (paw edema): 65%
  2nd Phase (paw edema): 80%
  3 Hrs. (total paw edema): 73%
[7]; 5.0 mg/kg
  1st Phase (paw edema): 80%
  2nd Phase (paw edema): 73%
  3 Hrs. (total paw edema): 73%
[8]
  Exitus (footnote): Exitus of an animal
  Granuloma Pouch Dry Weight: 98%
  Increase in Body Weight: not influenced
  Secretion: 134%
[9]; i.g., 2 × 1.5 mg/kg daily
  Granulation Tissue % (Dry Weight): 80%
  Increase in Body Weight: not influenced
[9]; NaCl control group
  granulation tissue % dry weight: 91%
[9]; tragacanth control group
  granulation tissue % dry weight: 65%
[10]
  60 Minutes (paw edema): 79%
  120 Minutes (paw edema): 81%
  180 Minutes (paw edema): 81%
